Assay results from patent publication US11053218B2, “3-(1-oxoisoindolin-2-yl)piperidine-2,6-dione derivatives and uses thereof” (Novartis AG, priority 2017, dated 2021).
Like-named read-outs stand apart in the source and are kept apart here.

How the values were obtained:
Assay type in all cases: cell-based
IKZF1 = IKZF1 (Homo sapiens, UniProt Q13422+Q96SW2); experiment: Prolabel quantification of IKZF1 protein levels in 293GT cells; conditions: Prolabel assay, read-out: IKZF1 EC50
IKZF2 = IKZF2 (Homo sapiens, UniProt Q96SW2+Q9UKS7); experiment: Prolabel quantification of IKZF2 protein levels in 293GT cells
GSPT1 = GSPT1 (Homo sapiens, UniProt P15170+Q96SW2); experiment: Prolabel quantification of GSPT1 protein levels in 293GT cells; conditions: Prolabel assay, read-out: GSPT1 EC50
[1] = 24 h, 10 μM, 24 h, 293GT cells; read-out: IKZF2 % protein reduction at 10 μM, 24 h
[2] = Prolabel assay, 293GT cells; read-out: IKZF2 EC50
[3] = 10 μM, 24 h, 293GT cells; read-out: IKZF2 % protein reduction at 10 μM, 24 h

GSPT1, sequence (P15170 whole entry): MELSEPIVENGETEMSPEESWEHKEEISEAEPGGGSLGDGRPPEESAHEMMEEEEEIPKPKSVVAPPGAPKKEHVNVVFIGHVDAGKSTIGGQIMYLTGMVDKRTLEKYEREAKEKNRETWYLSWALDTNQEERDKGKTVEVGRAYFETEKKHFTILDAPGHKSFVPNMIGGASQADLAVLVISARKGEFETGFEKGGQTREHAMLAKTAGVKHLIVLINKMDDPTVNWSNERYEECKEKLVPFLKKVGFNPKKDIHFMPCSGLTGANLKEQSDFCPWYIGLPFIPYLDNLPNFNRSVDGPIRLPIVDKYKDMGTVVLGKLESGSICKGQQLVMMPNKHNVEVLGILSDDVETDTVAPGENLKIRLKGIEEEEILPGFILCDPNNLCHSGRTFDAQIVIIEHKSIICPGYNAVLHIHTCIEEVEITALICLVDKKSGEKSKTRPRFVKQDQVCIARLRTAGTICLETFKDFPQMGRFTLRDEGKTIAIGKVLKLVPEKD
GSPT1, sequence (Q96SW2 whole entry): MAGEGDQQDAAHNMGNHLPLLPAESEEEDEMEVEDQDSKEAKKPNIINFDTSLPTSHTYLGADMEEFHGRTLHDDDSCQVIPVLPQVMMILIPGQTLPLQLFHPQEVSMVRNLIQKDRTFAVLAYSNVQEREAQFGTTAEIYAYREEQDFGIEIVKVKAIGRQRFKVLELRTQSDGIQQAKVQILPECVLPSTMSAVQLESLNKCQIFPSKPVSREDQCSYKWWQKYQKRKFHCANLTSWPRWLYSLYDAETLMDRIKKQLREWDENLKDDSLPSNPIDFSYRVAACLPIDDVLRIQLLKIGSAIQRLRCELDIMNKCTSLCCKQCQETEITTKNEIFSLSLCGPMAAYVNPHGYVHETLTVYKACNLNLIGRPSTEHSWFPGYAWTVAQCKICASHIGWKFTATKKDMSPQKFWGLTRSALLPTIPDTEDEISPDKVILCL
GSPT1, sequence (Q16531 whole entry partner): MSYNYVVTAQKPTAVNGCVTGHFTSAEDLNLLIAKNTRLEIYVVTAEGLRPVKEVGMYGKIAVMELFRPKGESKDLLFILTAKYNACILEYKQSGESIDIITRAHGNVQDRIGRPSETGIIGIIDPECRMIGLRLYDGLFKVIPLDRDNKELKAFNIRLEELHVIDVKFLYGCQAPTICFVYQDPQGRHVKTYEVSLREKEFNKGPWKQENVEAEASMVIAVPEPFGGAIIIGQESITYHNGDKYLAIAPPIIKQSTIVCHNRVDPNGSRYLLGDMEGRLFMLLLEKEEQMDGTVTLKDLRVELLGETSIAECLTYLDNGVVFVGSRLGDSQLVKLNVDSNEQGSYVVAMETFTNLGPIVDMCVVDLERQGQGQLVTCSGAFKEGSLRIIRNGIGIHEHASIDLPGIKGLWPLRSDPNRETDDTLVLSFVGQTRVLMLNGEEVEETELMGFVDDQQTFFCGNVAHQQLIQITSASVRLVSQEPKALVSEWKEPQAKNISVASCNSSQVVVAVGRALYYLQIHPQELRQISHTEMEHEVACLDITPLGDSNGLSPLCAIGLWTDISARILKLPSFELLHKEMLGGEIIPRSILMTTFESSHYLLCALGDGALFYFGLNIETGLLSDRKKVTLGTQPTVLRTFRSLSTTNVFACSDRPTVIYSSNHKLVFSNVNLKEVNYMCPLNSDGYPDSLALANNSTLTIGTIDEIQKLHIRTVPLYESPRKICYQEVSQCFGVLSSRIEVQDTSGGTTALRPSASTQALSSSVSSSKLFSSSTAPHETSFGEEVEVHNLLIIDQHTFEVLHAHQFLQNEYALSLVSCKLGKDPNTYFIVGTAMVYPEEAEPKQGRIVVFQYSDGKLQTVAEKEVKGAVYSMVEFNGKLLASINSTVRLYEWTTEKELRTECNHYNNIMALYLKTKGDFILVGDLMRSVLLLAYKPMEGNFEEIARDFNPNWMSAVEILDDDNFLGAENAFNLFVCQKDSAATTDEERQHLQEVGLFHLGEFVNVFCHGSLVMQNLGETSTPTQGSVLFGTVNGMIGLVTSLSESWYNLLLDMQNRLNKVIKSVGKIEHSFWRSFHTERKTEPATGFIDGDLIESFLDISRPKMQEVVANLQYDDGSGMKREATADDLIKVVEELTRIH
IKZF1, sequence (Q13422 whole entry): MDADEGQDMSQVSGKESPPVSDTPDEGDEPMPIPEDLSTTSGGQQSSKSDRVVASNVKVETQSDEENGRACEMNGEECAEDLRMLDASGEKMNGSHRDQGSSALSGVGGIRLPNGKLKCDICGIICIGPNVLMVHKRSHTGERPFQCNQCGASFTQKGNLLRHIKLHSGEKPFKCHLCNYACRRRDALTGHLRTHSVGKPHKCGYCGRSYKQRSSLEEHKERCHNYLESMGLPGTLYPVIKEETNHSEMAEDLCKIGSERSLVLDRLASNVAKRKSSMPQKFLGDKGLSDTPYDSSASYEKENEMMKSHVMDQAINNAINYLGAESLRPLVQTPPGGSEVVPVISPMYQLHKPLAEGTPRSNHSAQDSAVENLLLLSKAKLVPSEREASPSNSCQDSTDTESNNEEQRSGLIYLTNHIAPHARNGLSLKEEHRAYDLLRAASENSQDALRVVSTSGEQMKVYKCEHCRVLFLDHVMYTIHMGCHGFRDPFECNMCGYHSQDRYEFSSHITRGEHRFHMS
IKZF1, sequence (Q96SW2 whole entry): as the sequence (Q96SW2 whole entry) above
IKZF1, sequence (Q16531 whole entry partner): as the sequence (Q16531 whole entry partner) above
IKZF2, sequence (Q9UKS7 whole entry): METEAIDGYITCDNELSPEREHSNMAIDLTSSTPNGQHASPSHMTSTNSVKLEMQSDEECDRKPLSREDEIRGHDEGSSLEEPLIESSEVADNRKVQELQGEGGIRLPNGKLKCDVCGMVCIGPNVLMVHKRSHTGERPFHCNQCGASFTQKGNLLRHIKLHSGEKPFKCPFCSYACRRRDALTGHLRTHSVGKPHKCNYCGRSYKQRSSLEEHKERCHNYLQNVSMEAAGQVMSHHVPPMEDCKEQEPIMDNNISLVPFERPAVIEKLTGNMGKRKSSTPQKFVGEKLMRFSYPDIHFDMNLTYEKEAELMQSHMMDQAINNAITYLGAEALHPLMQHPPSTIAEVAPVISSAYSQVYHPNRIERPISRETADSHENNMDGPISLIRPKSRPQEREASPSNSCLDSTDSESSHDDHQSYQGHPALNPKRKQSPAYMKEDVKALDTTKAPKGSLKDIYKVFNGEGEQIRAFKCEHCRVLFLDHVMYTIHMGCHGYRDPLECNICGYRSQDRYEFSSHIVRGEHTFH
IKZF2, sequence (Q96SW2 whole entry): as the sequence (Q96SW2 whole entry) above
IKZF2, sequence (Q16531 whole entry partner): as the sequence (Q16531 whole entry partner) above

Row | DC50 (IKZF1) | inhibition at 10 µM (IKZF2; [1]) | DC50 (IKZF2; [2]) | DC50 (GSPT1) | Compound | inhibition at 10 µM (IKZF2; [3])
1 | > 50 µM | 55% | 0.056 µM | > 50 µM | Cc1ccccc1CN1CCC(c2ccc3c(c2)CN(C2CCC(=O)NC2=O)C3=O)CC1 (stereo not shown) [Compound I-157, 3-(5-(1-(2-methylbenzyl)piperidin-4-yl)-1-oxoisoindolin-2-yl)piperidine-2,6-dione] | 
2 | > 50 µM | 55% | 0.019 µM | > 50 µM | Cc1cc(C)cc(CN2CCC(c3ccc4c(c3)CN(C3CCC(=O)NC3=O)C4=O)CC2)c1 (stereo not shown) [Compound I-159, 3-(5-(1-(3,5-dimethylbenzyl)piperidin-4-yl)-1-oxoisoindolin-2-yl)piperidine-2,6-dione] | 
3 | > 50 µM | 50% | 0.018 µM | > 50 µM | C[C@H]1CC(c2ccc3c(c2)CN(C2CCC(=O)NC2=O)C3=O)CCN1Cc1ccccc1 (stereo partly drawn) [Compound I-160, 3-(5-((2S)-1-benzyl-2-methylpiperidin-4-yl)-1-oxoisoindolin-2-yl)piperidine-2,6-dione] | 
4 | > 50 µM | 50% | 0.018 µM | > 50 µM | O=C1CCC(N2Cc3cc(C4CCN(Cc5cccc6c5CCCC6)CC4)ccc3C2=O)C(=O)N1 (stereo not shown) [Compound I-164, 3-(1-oxo-5-(1-((5,6,7,8-tetrahydronaphthalen-1-yl)methyl)piperidin-4-yl)isoindolin-2-yl)piperidine-2,6-dione] | 
5 | > 30 µM | 50% | 0.016 µM | > 30 µM | Cn1nc(CN2CCC(c3ccc4c(c3)CN(C3CCC(=O)NC3=O)C4=O)CC2)c2ccccc21 (stereo not shown) [Compound I-203, 3-(5-(1-((1-methyl-1H-indazol-3-yl)methyl)piperidin-4-yl)-1-oxoisoindolin-2-yl)piperidine-2,6-dione] | 
6 | > 30 µM | 70% | 0.05 µM | > 30 µM | CN1CCN(Cc2cc(CN3CCC(c4ccc5c(c4)CN(C4CCC(=O)NC4=O)C5=O)CC3)ccc2O)CC1 (stereo not shown) [Compound I-205, 3-(5-(1-(4-hydroxy-3-((4-methylpiperazin-1-yl)methyl)benzyl)piperidin-4-yl)-1-oxoisoindolin-2-yl)piperidine-2,6-dione] | 
7 | 0.039 µM | 80% | 0.024 µM | > 30 µM | O=C1CCC(N2Cc3cc(C4CCN(Cc5csc(-c6ccccc6)n5)CC4)ccc3C2=O)C(=O)N1 (stereo not shown) [Compound I-211, 3-(1-oxo-5-(1-((2-phenylthiazol-4-yl)methyl)piperidin-4-yl)isoindolin-2-yl)piperidine-2,6-dione] | 
8 | > 30 µM | 70% | 0.045 µM | > 30 µM | O=C1CCC(N2Cc3cc(C4CCN(Cc5nc6ccsc6c(=O)[nH]5)CC4)ccc3C2=O)C(=O)N1 (stereo not shown) [Compound I-213, 3-(1-oxo-5-(1-((4-oxo-3,4-dihydrothieno[3,2-d]pyrimidin-2-yl)methyl)piperidin-4-yl)isoindolin-2-yl)piperidine-2,6-dione] | 
9 | > 50 µM | 70% | 0.019 µM | > 30 µM | O=C1CCC(N2Cc3cc(C4CCN(Cc5ccnc6ccccc56)CC4)ccc3C2=O)C(=O)N1 (stereo not shown) [Compound I-214, 3-(1-oxo-5-(1-(quinolin-4-ylmethyl)piperidin-4-yl)isoindolin-2-yl)piperidine-2,6-dione] | 
10 | > 30 µM | 65% | 0.12 µM | > 30 µM | Cc1ccc2sc(-c3ccc(CN4CCC(c5ccc6c(c5)CN(C5CCC(=O)NC5=O)C6=O)CC4)cc3)nc2c1 (stereo not shown) [Compound I-225, 3-(5-(1-(4-(5-methylbenzo[d]thiazo1-2-yl)benzyl)piperidin-4-yl)-1-oxoisoindolin-2-yl)piperidine-2,6-dione] | 
11 | > 30 µM | 70% | 0.018 µM | > 30 µM | O=C1CCC(N2Cc3cc(C4CCN(Cc5ccc6ccc(F)cc6n5)CC4)ccc3C2=O)C(=O)N1 (stereo not shown) [Compound I-232, 3-(5-(1-((7-fluoroquinolin-2-yl)methyl)piperidin-4-yl)-1-oxoisoindolin-2-yl)piperidine-2,6-dione] | 
12 | > 50 µM | 0% | > 50 µM | > 50 µM | O=C1CCC(N2Cc3cc(C4CCN(CC(F)(F)F)CC4)ccc3C2=O)C(=O)N1 (stereo not shown) [Compound I-253, 3-(1-oxo-5-(1-(2,2,2-trifluoroethyl)piperidin-4-yl)isoindolin-2-yl)piperidine-2,6-dione] | 

The remaining lines, values behind:

Row | Compound | DC50 (IKZF1) | inhibition at 10 µM (IKZF2; [1]) | DC50 (IKZF2; [2]) | DC50 (GSPT1) | inhibition at 10 µM (IKZF2; [3])
13 | Cc1ccc(CN2CCC(c3ccc4c(c3)CN(C3CCC(=O)NC3=O)C4=O)CC2)cc1 (stereo not shown) [Compound I-158, 3-(5-(1-(4-methylbenzyl)piperidin-4-yl)-1-oxoisoindolin-2-yl)piperidine-2,6-dione] | > 50 µM | 55% | 0.016 µM | > 50 µM | 
14 | O=C1CCC(N2Cc3cc(C4CCN(CC5CCCc6ccccc65)CC4)ccc3C2=O)C(=O)N1 (stereo not shown) [Compound I-168, 3-(1-oxo-5-(1-((1,2,3,4-tetrahydronaphthalen-1-yl)methyl)piperidin-4-yl)isoindolin-2-yl)piperidine-2,6-dione] | > 50 µM | 55% | 0.014 µM | > 50 µM | 
15 | COC(=O)CN1CCC(c2ccc3c(c2)CN(C2CCC(=O)NC2=O)C3=O)CC1 (stereo not shown) [Compound I-169, methyl 2-(4-(2-(2,6-dioxopiperidin-3-yl)-1-oxoisoindolin-5-yl)piperidin-1-yl)acetate] | > 50 µM |  |  | > 50 µM | 20%
16 | O=C1CCC(N2Cc3cc(C4CCN(c5ccccc5)CC4)ccc3C2=O)C(=O)N1 (stereo not shown) [Compound I-170, 3-(1-oxo-5-(1-phenylpiperidin-4-yl)isoindolin-2-yl)piperidine-2,6-dione] | > 50 µM |  |  | > 50 µM | 5%
17 | CC1(C)CC(c2ccc3c(c2)CN(C2CCC(=O)NC2=O)C3=O)CC(C)(C)N1 (stereo not shown) [Compound I-171, 3-(1-oxo-5-(2,2,6,6-tetramethylpiperidin-4-yl)isoindolin-2-yl)piperidine-2,6-dione] | > 50 µM | 5% |  | > 50 µM | 
18 | N#CCc1ccc(CN2CCC(c3ccc4c(c3)CN(C3CCC(=O)NC3=O)C4=O)CC2)cc1 (stereo not shown) [Compound I-206, 2-(4-((4-(2-(2,6-dioxopiperidin-3-yl)-1-oxoisoindolin-5-yl)piperidin-1-yl)methyl)phenyl)acetonitrile] | > 30 µM | 80% | 0.009 µM | > 30 µM | 
19 | CN(C)S(=O)(=O)c1cccc(CN2CCC(c3ccc4c(c3)CN(C3CCC(=O)NC3=O)C4=O)CC2)c1 (stereo not shown) [Compound I-216, 3-((4-(2-(2,6-dioxopiperidin-3-yl)-1-oxoisoindolin-5-yl)piperidin-1-yl)methyl)-N,N-dimethylbenzenesulfonamide] | 0.22 µM | 80% | 0.01 µM | > 30 µM | 
20 | CN(C)S(=O)(=O)c1ccc(CN2CCC(c3ccc4c(c3)CN(C3CCC(=O)NC3=O)C4=O)CC2)cc1 (stereo not shown) [Compound I-237, 4-((4-(2-(2,6-dioxopiperidin-3-yl)-1-oxoisoindolin-5-yl)piperidin-1-yl)methyl)-N,N-dimethylbenzenesulfonamide] | > 30 µM | 70% | 0.02 µM | > 30 µM | 
21 | O=C1CCC(N2Cc3cc(C4CCN(Cc5ccc6nccnc6c5)CC4)ccc3C2=O)C(=O)N1 (stereo not shown) [Compound I-239, 3-(1-oxo-5-(1-(quinoxalin-6-ylmethyl)piperidin-4-yl)isoindolin-2-yl)piperidine-2,6-dione] | > 30 µM | 70% | 0.007 µM | > 30 µM | 
22 | Cc1onc(-c2ccccc2)c1CN1CCC(c2ccc3c(c2)CN(C2CCC(=O)NC2=O)C3=O)CC1 (stereo not shown) [Compound I-251, 3-(5-(1-((5-methyl-3-phenylisoxazol-4-yl)methyl)piperidin-4-yl)-1-oxoisoindolin-2-yl)piperidine-2,6-dione] | > 30 µM | 60% | 0.021 µM | > 30 µM | 
